| Structure (SMILES) | logP |
| --- | --- |
| COCC(C)OCC(C)OC(C)=O (centres undefined) | 0.8 |
| CCCCOC(C)COC(C)COC(C)CO (centres undefined) | 1.9 |
| COC(C)COC(C)CO (centres undefined) | -0.06 |
| CCCOC(C)COC(C)CO (centres undefined) | 0.99 |
| CCCOCC(C)OCC(C)O (centres undefined) | 0.99 |
| CCCOCC(C)O (centres undefined) | 0.62 |
| CCCCOCC(C)O (centres undefined) | 1.15 |
| CCCCOCC(C)OCC(C)O (centres undefined) | 1.52 |
| COCC(C)OCC(C)OCC(C)O (centres undefined) | 0.31 |
| CC(CO)Oc1ccccc1 (centres undefined) | 1.5 |
| CC(O)COc1ccccc1 (centres undefined) | 1.5 |

Further lines, results first:

| logP | Structure (SMILES) |
| --- | --- |
| -0.44 | COCCCO |
| 0.8 | COC(C)COC(C)COC(C)=O (centres undefined) |
| 0.43 | COC(C)COC(C)=O (centres undefined) |
| 0.31 | COC(C)COC(C)COC(C)CO (centres undefined) |
| -0.44 | COCC(C)O (centres undefined) |
| 0.62 | CCCOC(C)CO (centres undefined) |
| 1.15 | CCCCOC(C)CO (centres undefined) |
| 1.9 | CCCCOCC(C)OCC(C)OCC(C)O (centres undefined) |

Source: the SangsterLogP compilation
